From patent US9907857B2, “Peptide having cell membrane penetrating activity” (EWHA UNIVERSITY-INDUSTRY COLLABORATION FOUNDATION, priority 2006, dated 2018) come the findings set out here.

What all share (type): cell-based
The test system of data set [1] is HeLa cells. The experiment in a line: Cell penetrating efficiency of rhodamine-labelled TCTP-derived peptides, microplate fluorescence reader. Here is the method: N-terminus of each peptides was labeled with fluorescence dye, rhodamine and C-terminus was protected. Peptide purity (>95%) was determined by HPLC. Synthesis of the peptides was requested to PEPTRON, Inc.
HeLa cell line (ATCC) was propagated in DMEM (GIBCO) supplemented with 10% FBS (GIBCO) and 100 units/mL penicillin-streptomycin. Cells were grown in a 5% CO2 incubator at 37° C.
HeLa cells were cultured in 48-well plate until they were 70˜80% grown up before a day of the experiment. The cells were washed with DMEM of 37° C. twice, and TCTP-derived peptides synthesized in Example 2-1) were treated to the culture medium in a dose dependent manner (0, 1, 5, 10, 50, 100 μM), then the cells was incubated for 15 minutes or 2 hours in an CO2 incubator at 37° C.
After the incubation, the cells were washed in cool PBS three times and immediately measured by a microplate fluorescence reader (BIO-TEK instruments, Inc., Vermont, USA) at emission 530 nm and excitation 590 nm for a measurement of rhodamine of intracellular uptake marker. The sensitivity of reader was set at 100 as a basic mode, but was lowered to 75 if the fluorescent signals were too strong. All experiments were conducted in triplet repeats for reproducibility (FIG. 2 and FIG. 3).

Data set [2] relates to HeLa cells. Nature of the data set: Cell penetrating activity of FITC-labelled mutant peptides, mean fluorescence intensity by FACS. As to conditions: 2 hours, FACS. The protocol: N-terminus of each peptide was labeled with fluorescence dye, FITC and C-terminus was protected. Peptide purity (>95%) was determined by HPLC. Synthesis of the peptides of the present invention was requested to PEPTRON, Inc.
HeLa cell line was propagated in DMEM supplemented with 10% FBS and 100 units/mL penicillin-streptomycin. Cells were grown in a 5% CO2 incubator at 37° C.
HeLa cells were cultured in 6-well plate until they were 70˜80% grown up before a day of the experiment. The cells were washed with DMEM of 37° C. twice, and TCTP-derived peptides synthesized in Example 5-1) were treated to the culture medium in a dose dependent manner (0, 1, 10, 100 μM), then the cells was incubated for 2 hours in an CO2 incubator at 37° C.,
After the incubation, the cells were washed in cool PBS two times and treated with 1 mg/ml trypsin for 15 min at 37° C. to digest peptides attached on cell membrane and washed in PBS twice again. Then, the cells were analyzed by FACS at emission 510 nm and excitation 530 nm for a measurement of FITC of intracellular uptake marker (FIGS. 7, 8 and 9). Intracellular translocation efficiency of mutant peptides, TCTP-CPP#1-35(SEQ ID Nos.: 20-54) was compared to wild type(WT), TCTP(1-10)(SEQ ID No.: 1) and control peptide, TAT(48-57).
For orientation: A flow cytometer gives signals particle by particle.

Data set [3] relates to HeLa cells. The note with it: treated for 48 hours; concentration not restated, 100 μM implied. Here is the method:
To confirm whether cell penetrating activity of the peptides of present invention was due to membrane weakness as a result of cytotoxicity, we measured cytotoxicity as follows. HeLa cells were cultured in 96-well plate until they were 70% grown up before a day of the experiment. Control TAT 48-57 and the mutant peptides at concentrations of 0, 1, 10, 100 μM were treated to DMEM supplemented with 10% FBS for 24 and 48 hours. After 2 hours in addition of 10 μl of CCK-8 to each well, absorbance at 450 nm was measured by KC4 plate reader(FIGS. 10, 11 and 12). As a result of toxicity at 100 μM for 24 hours, cytotoxicity of SEQ ID No.: 1, TCTP(1-10) was about 14% compared with control, and cytotoxicities of the other peptides, TCTP-CPP#3, 7 and 8 were insignificant considering standard deviation. When treated for 48 hours, all peptides had no cytotoxicity at 1 and 10 μM while cytotoxicities of TAT, TCTP(1-10), TCTP-CPP#3, 7 and 8 were about 53.8, 28.3, 46.2, 8.2 and 25.6%, respectively. […] Also, all of TCTP-CPP#27-35 had no cytotoxicity at 1 μM and 10 μM but had cytotoxicity at 100 μM.

With “GRKKRRQRRR (Human immunodeficiency virus; (1)..(10) 48-57 amino acid residue of TAT) [TAT(48-57), Control peptide, well-known PTD from HIV-1 TAT, reference compound]”, the “intracellular translocation, dependence on concentration” value in data set [1] (0-100 μM, 15 minutes or 2 hours) is “transduced into cell in a dose and time-dependent manner”. Further, the “concentration at which translocation was saturated” value in data set [1] (2 hour treatment (FIG. 3)) is at least 1 µM. In data set [2] (peptide at 10 μM), the “mean fluorescence intensity (MFI) relative to WT, MFI of WT at 10 μM set to 1” value was 6.1 times. Besides, the “mean fluorescence intensity (MFI) relative to WT” value in data set [2] (peptide at 100 μM) is reported as 94.75 times. Further, the cytotoxicity entry in data set [3] is on record as “about 53.8%”.
